This is an account of results in PubChem BioAssay (NCI).

The structures appear in SMILES notation.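 1) Cells in 96-well plates. 2) Compound, 48 h, 5 concentrations. 3) Linear interpolation between surrounding doses. 4) Unreached endpoint = highest concentration. At the TGI there is no net growth.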

Experiment in all cases: NCI-60 cell line screen, 48 h
The test system of assay [1] is DMS 114 small cell lung.
In assay [2] the test system is HOP-18 NSCLC.
Assay [3] deals with KM20L2 colon.
In assay [4] the test system is M19-MEL melanoma.
The test system of assay [5] is RXF-631 renal.
Assay [6] deals with XF 498 CNS.

On to `COc1c(O)c(O)cc2c1-c1ccc(OC)c(=O)cc1C(NC(C)=O)CC2` (stereo unspecified), for which the TGI in assay [1] was 6.43 µM; in assay [2], greater than 100 µM; in assay [3], 17.5 µM; in assay [4] it was 23.7 µM; in assay [5], 68.4 µM; in assay [6] it was 54.2 µM.

`COc1cc(CC(C)N)ccc1O` (stereo unspecified): the TGI in assay [1], in assay [2], in assay [3], in assay [5] and in assay [6] was greater than 100 µM in each case.
